From patent US20110206638A1, “COMPOSITIONS AND METHODS FOR REDUCING THE MUTATION RATE OF VIRUSES” (priority 2010, published 2011)

What was measured:
[1] = system: subgenomic HCV replicon of genotype 1b (Con1), NS5A region; experiment: NS5A sequencing of HCV RNA, mutation frequency in SgPC2 Con1 replicon cells (Example 1); type: cell-based, Hepatitis C virus; conditions: for dn/ds ratio: control 0.33; for Percentage of sites showing positive selection: control 2.36; for mutation frequency, nucleotide changes per site / amino acid changes per codon: SgPC2 Con1 replicon cells, once daily for 48 hrs, ethanol 0.5%; for mutation frequency, nucleotide changes per site: normalized by T7 baseline
Method: Huh7 cell clones (SgPC2 cells) supporting continuous replication of a subgenomic HCV replicon of genotype 1b (Con1 sequence) were used (Choi J. et al. (2004) Hepatology 39:81-89; Blight K J et al. (2000) Science 290:1972). The subgenomic replicons support HCV RNA replication but no virus is formed. The in vitro transcription, transfection of HCV RNA, and Huh7 human hepatoma cell culture were performed by methods known in the art and as previously described (Choi J. et al. (2004) Hepatology 39:81-89; Blight K J et al. (2000) Science 290:1972).
After various treatments, total RNAs were collected using Trizol (Invitrogen). Then, the NS5A region (nt. 4612 to 6013 of Con1 replicon) was reverse transcribed/amplified with AccuScript High Fidelity RT-PCR System (Stratagene). The cDNAs were cloned into pUC19 and sequenced at the Joint Genome Institute (Livermore, Calif.). Sequences were aligned against Con1(S11791) sequence, using BioEdit/MEGA 4.0 Molecular Evolutionary Genetics Analysis software.
To test whether ethanol can increase the mutation rate of HCV, SgPC2 Con1 replicon cells that support genotype 1b subgenomic HCV RNA replication (FIG. 2B) were incubated with ethanol (0.5%), BSO (amplifies the effects of endogenous ROS/RNS by decreasing the level of glutathione in the cell), H2O2 (100 μM), or acetaldehyde (10 μM) once daily for 48 hrs. Then, the RNAs were collected, and the NS5A region (nt. 4612 to 6013 of Con1 replicon) was reverse transcribed/amplified with AccuScript High Fidelity RT-PCR System (Stratagene). Then, the cDNAs were cloned into pUC19 and sequenced at the Joint Genome Institute (Livermore, Calif.). T7 HCV RNA transcript, initially used to transfect the Con1 cells, was also sequenced to assess the basal level of RNA heterogeneity, such as due to any heterogeneity of the DNA template prior to in vitro transcription as well as any errors generated during transcription and RT-PCR cloning. The experiments were focused on NS5A because of its moderate level of diversity and its role in viral replication as well as interferon resistance. Sequences were aligned against Con1(S1179I) sequence, using BioEdit/MEGA 4.0 Molecular Evolutionary Genetics Analysis software.

[2] = system: Huh7 cells; type: cell-based, human
Method: Total RNA was isolated using Trizol (Invitrogen) and analyzed for 8-OH-guanosine (8-OH-G) by northwestern, as described (Shan X et al. (2003) J. Neurosci. 23:4913-4921). Briefly, RNA was size-fractionated by agarose gel electrophoresis, transferred to a nylon membrane, blocked with 1% BSA, incubated sequentially with monoclonal anti-8-OH-G/dG antibodies (QED Bioscience, Inc.) and then with goat anti-mouse HRP-conjugated secondary antibody (Santa Cruz Biotechnology), and signals were detected, using an ECL kit (Amersham). In addition, RNA was digested with nuclease P1 (Sigma, US Biological) and alkaline phosphatase (Promega) and analyzed for 8-OH-G content using RNA Damage Kit (Cell Biolabs, Inc.), following manufacturer's protocols.
GO continuously generates H2O2 extracellularly, in the presence of glucose and can be used to mimic inflammation and continued oxidative stress seen during chronic hepatitis C. […] An in vitro-oxidized control Huh7 RNA (incubated with H2O2+cytochrome C) was used as a positive control (FIG. 3A). […] NiCl2 was used as a positive control genotoxin in FIGS. 3B and 3C.

CCO [Ethanol, ethanol]
amino acid changes, fold higher than the control group ([1]; 48 hrs): ~24 fold | nucleotide changes, fold higher than the control group ([1]; 48 hrs): ~8 fold | dn/ds ratio ([1]; 48 hrs): 0.76 | Percentage of sites showing positive selection ([1]; 48 hrs): 5.14% | Ts/Tv ratio ([1]; 48 hrs, control approximately 2.7): 5.7 | location of synonymous and nonsynonymous mutations in NS5A ([1]; SNAP plot against codons, 48 hrs): clustered in the C-terminal half of NS5A | mutation frequency, nucleotide changes per site [1]: 1.33×10^−3 nucleotide changes per site | amino acid changes per codon [1]: 3.05×10^−3 amino acid changes per codon | 8-OHG in Huh7 cells [2]: elevated

CCCCS(=N)(=O)CCC(N)C(=O)O [BSO, L-buthionine-S,R-sulfoximine]
amino acid changes, fold higher than the control group ([1]; 48 hrs): ~12 fold | nucleotide changes, fold higher than the control group ([1]; 48 hrs): about 4 fold | dn/ds ratio ([1]; 48 hrs): 0.59 | Percentage of sites showing positive selection ([1]; 48 hrs): 6.42% | mutation frequency, nucleotide changes per site [1]: 6.74×10^−4 nucleotide changes per site | amino acid changes per codon [1]: 1.67×10^−3 amino acid changes per codon
